Where two headings read alike, the source gives them in different places.
Assays:
[1] = tested on: Mouse preadipocyte strain 3T3-L1; experiment: Inhibition of differentiation as an indication of acetic acid uptake; format: cell-based; settings: Mus musculus, 3T3-L1, 0.1 μM test substance, control (0.01% dimethylsulfoxide) = 100%, read-out: Rate of Uptake (%) of [2-14C] acetic acid
Method in brief: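 Confluent 3T3-L1 cells induced to differentiate for 4 days (insulin, IBMX, dexamethasone, 5% FBS) with test compound at 0.1 μM final or 0.01% DMSO, then 2 days in insulin maintenance medium, at 37 °C, 10% CO2. [2-14C]acetic acid uptake over 1 hr counted by scintillation; expressed as % of DMSO control.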

lenses = experiment: Cataract assessment: opacity of cultured lenses exposed to hydrogen peroxide; set-up: species or system rat; settings: 100 nM test compound with 5 mM hydrogen peroxide; 24 hr; clear: 0, slightly opaque: 1, moderately opaque: 2
Procedure: The lenses were isolated from Sprague-Dawley rats (male, purchased from SLC Japan), and the lenses were pre-cultured in a medium (Medium-199: GIBCO BRL) for 3 hr and the lenses maintaining transparency were selected and used in the experiment. The crystalline lenses were cultured for 24 hr in the following 3 groups; 1) in Medium-199 (3 mL), 2) in Medium-199 (3 mL) containing hydrogen peroxide (final concentration: 5 mM) and 3) in Medium-199 (3 mL) containing the test compound (final concentration: 100 nM), DMSO (final concentration: 0.1% v/v) and hydrogen peroxide (final concentration: 5 mM). After finalising culturing, the opacity of the lens was scored based on the following criteria: clear: 0, slightly opaque: 1, moderately opaque: 2. Thus the improving effect of the test compound on cataracts was assessed.

Balb/c mice = experiment: Prevention of concanavalin A liver injury; format: in vivo, mouse; settings: Mus musculus, po, 24 h, 10 mg/mL suspension at 10 mL/kg, 30 min prior to Con A, plasma 24 hr after Con A
Procedure: Five (5) Balb/c mice (female, 6-8 weeks old) per group were used. Liver injury was elicited in the mouse by injection of concanavalin A (Con A) dissolved in saline (2.0 mg/mL) into the tail vein at a volume of 10 mL/kg of the solution (Hepatology, 21, 190-198 (1995)).
The test compounds were suspended in distilled water containing 0.5% CMC, at a concentration of 10 mg/mL. This suspended solution was orally administered to the mouse at a volume of 10 mL/kg, 30 min prior to injection of Con A (group A).
Apart from this group, distilled water containing 0.5% CMC powder, instead of the test compound, was orally administered in the second group of mice (group B). In the 3rd group, nothing was given to the mice (group C).
Twenty four (24) hr after the injection of Con A, blood was collected from the abdominal aorta of the mice and the plasma was isolated while mixing with heparin. Activities of glutamic acid oxaloacetic acid transaminase (AST) and glutamic acid pyruvic acid transaminase (ALT) in the plasma were determined according to the methods described by Nagakawa et al. (J. Pharmacol. Exp. Ther., 264, 496-500 (1993)). From the values obtained inhibitory rates of the test compound against AST and ALT levels which had been increased by injection of Con A, were obtained based on the following equation.
Inhibitory Rate(%)={1−[(A−C)/(B−C)]}×100
A: The average level of AST or ALT in the group A
B: The average level of AST or ALT in the group B
C: The average level of AST or ALT in the group C

TNF-α production = experiment: Inhibitory activity against cytokine (TNF-α) production in LPS-stimulated RAW264.7 cells; format: cell-based, mouse; settings: Mus musculus, RAW264.7, 15 h, 1 μM test compound, LPS 10 ng/mL
Method in brief: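 Mouse RAW264.7 macrophages (5,000 cells/well) stimulated with 10 ng/mL LPS (final) and treated with test compound at 1 μM final for 15 h at 37 °C. Supernatant mouse TNF-α measured by ELISA; % inhibition = 100−(A−B)/(C−B)×100, using unstimulated and LPS-only controls.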

Rat white adipocytes = experiment: Stimulation of differentiation of the adipocytes (Oil Red O); format: cell-based; settings: Rattus norvegicus, Adipocyte, 120 h, 100 nM test compound; 5 days; Oil Red O ABS550; control = 100%, blank = 0%; Table 7; read-out: Rate of Differentiation (%)
Method in brief: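 Rat white adipocytes, 5,000 cells/well, cultured 5 days in differentiation-inducing medium with test compound at final 100 nM (0.1% DMSO). Cells fixed, stained with Oil Red O, dye extracted in DMSO and read at 550 nm; differentiation rate expressed relative to vehicle control (100%) and cell-free blank (0%).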

[2] = read-out: Preventing rate against liver injury, ALT (%)
[3] = read-out: Preventing rate against liver injury, AST (%)

SMILES | activity at 0.1 µM [1] | opacity of the lens (average score) (lenses) | inhibition in vivo at 10000 µg/mL, 100 mg/kg (Balb/c mice; [2]) | inhibition in vivo at 10000 µg/mL, 100 mg/kg (Balb/c mice; [3]) | inhibition at 1 µM (TNF-α production) | activity at 0.1 µM (Rat white adipocytes)
CN(C)c1ccc(-c2ccc(NC(=O)c3cc([N+](=O)[O-])ccc3Cl)cc2)cc1 [Example 53, N-[4-(4-Dimethylaminophenyl)phenyl]-(2-chloro-5-nitrophenyl)carboxamide] | 76.2% | 1.0 | 22% | 1.7% | 15.6% | –
CS(=O)(=O)Nc1ccc(NC(=O)c2cc([N+](=O)[O-])ccc2Cl)cc1 [Example 136, N-(4-Methanesulfonylaminophenyl)-(2-chloro-5-nitrophenyl)carboxamide] | 88.9% | – | 13.1% | 12% | – | 129%
CC(C)(C)c1cc(-c2csc(NC(=O)c3cc([N+](=O)[O-])ccc3Cl)n2)cc(C(C)(C)C)c1O [Example 139, N-[4-(3,5-di-tert-Butyl-4-hydroxyphenyl)thiazol-2-yl]-(2-chloro-5-nitrophenyl)carboxamide] | 59.2% | 1.0 | 54% | 48.4% | 42.7% | –
Cc1ccc(NS(=O)(=O)c2cccc(NC(=O)c3cc([N+](=O)[O-])ccc3Cl)c2)cc1 [Example 142, N-[3-(4-Tolylaminosulfonyl)phenyl]-(2-chloro-5-nitrophenyl)carboxamide] | 74.4% | – | 54% | 63% | – | 112%

Source: patent US20030134859A1 (SANKYO COMPANY, LIMITED, priority 2000, published 2003)
